Patent US20260232666A1, “COMPOSITIONS AND METHODS FOR INHIBITION OF RAS” (TheRas, Inc., priority 2023, published 2026)

Tests used:
[1] = target: T1, GppNHp-loaded KRAS4b (amino acids 1-169) G12C/C118S protein (Homo sapiens, UniProt P01116, C118S/G12C); assay: Covalent cysteine 12 modification by MALDI-TOF MS, GppNHp-loaded KRAS G12C; assay type: binding; conditions: 15 minutes reaction time point
T1 construct: KRAS4b (amino acids 1-169) G12C/C118S protein; made in house
Procedure: (§1) Biological Example 1: Covalent Cysteine 12 Modification Analysis Using Matrix Assisted Laser Desorption Ionization-Time of Flight Mass Spectrometry (MALDI-TOF MS)
(§2) MALDI-TOF MS analysis was performed using 1 μM protein (KRAS G12C), and 1:2.5 protein to compound ratio.
(§3) Reaction: 1 μM of GppNHp, GTP, or GDP-loaded KRAS4b (amino acids 1-169) G12C/C118S protein (produced in-house by Protein Expression Laboratory, FNLCR/Leidos Biomed) in 20 mM 4-(2-hydroxyethyl)-1-piperazineethanesulfonic acid (HEPES) buffer containing 150 mM NaCl, 1 mM MgCl2, pH 7.3 was prepared freshly before assay. Twelve-μL aliquots of protein were dispensed onto low volume 384-well plate, then 30 nL of tested compounds from 1 mM DMSO stocks were added to appropriate wells using ECHO 555 acoustic liquid handler (Labcyte Inc.). For each reaction/assay, three blanks were prepared by mixing 12 μL of protein solution with 30 nL DMSO. The contents of the wells were carefully mixed by aspiration, and then each plate was sealed with an adhesive cover, centrifuged at 2000 g for 1 minute, and kept in the dark at room temperature until 5 min, 15 min, 30 min, 2 h, or 6 h collections.
(§4) Target pretreatment: Before each assay MALDI target (Bruker MPT 384 ground steel BC) was pre-treated by pipetting on each spot 0.75 μL of saturated sinapinic acid in acetonitrile (ACN).
(§5) Sample preparation: At collection time point, 2 μL of reaction mixtures were pipetted out into 15 μL MALDI matrix solution (saturated solution of sinapinic acid in 1:1 ACN:water solution containing 0.75% trifluoroacetic acid (TFA)) deposited on 384 well polypropylene plate. Resulting solution was mixed by aspiration, centrifuged at 2000 g for 1 minute, then 1.5 μL aliquots were dispensed on pre-treated MALDI target using Beckman Coulter Biomek FXP 96/384-Span-8 Laboratory Automation Workstation. Finally, the MALDI target was dried under mild vacuum to produce spots with fine crystalline structure.
(§6) Measurements: MALDI-TOF measurements were performed on a Bruker Daltonics rapiflex Tissuetyper TOF-TOF mass spectrometer using linear mode and mass range from 18.6 to 21.6 kDa. Detector gain was set to 3.3×(483 V), sample rate to 5 GS/s, real time smoothing to medium (175 MHz), laser smart beam pattern was set to: “MS Thin Layer M5”, and the laser frequency was 10000 Hz. Spectra were automatically collected using custom AutoXecute method. Laser power was auto adjusted using fuzzy control. The peak selection range was set to be between 19000 and 21500 Da. Peak evaluation uses half width parameter set to be smaller than 40 Da for processed spectrograms (centroid peak detection; smoothed by SavitzkyGolay algorithm using 7 m/z width and 2 cycles; baseline was subtracted using median algorithm with flatness 1 and median level 0.01). Fuzzy control used Proteins/Oligonucleotides protocol with minimum half width 1/10 times above threshold. Up to 40000 satisfactory shots were collected in 10000 shot steps. Dynamic termination was implemented to finish data collection when peak signal/noise ratio was reaching value of 50.
(§7) Spectra processing: Spectra were smoothed by SavitzkyGolay algorithm using 7 m/z width and three cycles. Centroid peak detection algorithm was used with signal to noise threshold set to 6, relative intensity threshold 4%, peak width 10 m/z and median baseline subtraction using flatness of 1 and median level of 0.01. Peak intensity and area under the peak were evaluated and recorded for all peaks between 19,300 Da and 21,550 Da.
(§8) Calculation of percent modification: Percent modification was calculated as a ratio of peak height for protein modified by compound to sum of peak height of remaining protein plus peak height for protein modified by compound. If multiple modifications were observed each was calculated as a ratio of peak height for given modification versus sum of peak heights for all observed protein species. Data reported in Table 4 are from 15 minutes reaction time point. […]

[2] = target: T2, GDP-loaded KRAS4b (amino acids 1-169) G12C/C118S protein (Homo sapiens, UniProt P01116, C118S/G12C); assay: Covalent cysteine 12 modification by MALDI-TOF MS, GDP-loaded KRAS G12C; assay type: binding; conditions: 15 minutes reaction time point
T2 construct: KRAS4b (amino acids 1-169) G12C/C118S protein; made in house
Procedure: as §1, §2, §3, §4, §5, §6, §7, §8

pERK in NCI-H358 cells = assay: Cell-based pERK HTRF assay (pERK inhibition in H358 cells); conditions: 30 min incubation
Procedure: Biological Example 3: Cell-Based pERK HTRF Assay
pERK assays (Perkin Elmer) were used to determine the effectiveness of compounds of the present disclosure in disrupting KRAS G12C protein/effector signaling in cells.
On Day 1, cells (NCI-H358) were seeded into 96-well plates at 4×10^4 cells/well in complete growth media (RPMI, 10% FBS).
On Day 2, cells were treated with compounds at 0.25% DMSO. The source plate was created with compounds diluted in media at 5-fold the final assay concentration. The compounds were run in a 9-point concentration curve starting at 75 μM, with a 3-fold dilution between concentrations. 20 μL was transferred onto the cell plates (final volume in wells was 100 μL). Plates were harvested after 30 min incubation by aspirating media and adding kit-supplied 1× supplemented lysis buffer to all wells (75 μl per well). Plates were then placed on a plate shaker and incubated at 850 rpm for an additional 30 min.
Antibody mixture solution was prepared by diluting aliquoted d2 and Eu Cryptate antibodies 1:20 in kit supplied detection buffer, then mixed the diluted antibodies solutions (1:1 v:v). 4 μL of this solution was then added to a 384-well detection plate (Perkin Elmer; 6008230).
Samples were homogenized by pipetting up and down and then transferred (16 μL of cell lysates) from the 96-well cell culture plate to two wells of the HTRF 384-well detection plate containing the antibody solution. Plates were centrifuged (524 g for […]) and allowed to incubate between 4 and 24 h at room temperature. Maximum signal is reached after 4 h incubation time and remains stable over a period of 24 hours. Therefore, readings can be made between 4 and 24 h of incubation. Plates were centrifuged again (524 g for 1 min), and analyzed on the En Vision plate reader using the following settings: Excitation 320 nm, Bandwidth 75 nm; Emission 615 nm, Bandwidth 85 nm; Gain 100%; Flashes 100; Lag 60 μs.
The percent of modification of GppNHp, GTP, or GDP loaded KRAS G12C by MALDI-TOF MS, biochemical Raf1 RBD-KRAS G12C-GppNHp disruption assay IC50, and pERK inhibition IC50 of selected compounds described herein are shown in Table 4. For percent of modification at 15 minutes (MALDI-TOF MS) of GppNHp, GTP, or GDP loaded KRAS G12C: A: percent of modification ≥70%; B: 50≤percent of modification <70%; C: 10%≤percent of modification <50%; D: percent of modification <10%. […] For pERK inhibition in H358 cell assay: A: IC50≤0.1 μM; B: 0.1 μM<IC50≤1 μM; C: IC50>1 μM. Blanks in the table represent that compound was not tested in the indicated assay.

[3] = target: T3, GTP-loaded KRAS4b (amino acids 1-169) G12C/C118S protein (Homo sapiens, UniProt P01116, C118S/G12C); assay: Covalent cysteine 12 modification by MALDI-TOF MS, GTP-loaded KRAS G12C; assay type: binding; conditions: 15 minutes reaction time point
T3 construct: KRAS4b (amino acids 1-169) G12C/C118S protein; made in house
Procedure: as §1, §2, §3, §4, §5, §6, §7, §8

GppNHp-KRAS G12C percent of modification [1] | GDP-KRAS G12C percent of modification [2] | IC50 (pERK in NCI-H358 cells; Homo sapiens, NCI-H358, 0.5 h) [nM] | GTP-KRAS G12C percent of modification [3] | IC50 (pERK in NCI-H358 cells) [nM] | Structure (SMILES)
B (50≤percent of modification <70%) | C (10%≤percent of modification <50%) |  |  |  | C=CC(=O)N1C[C@H](C)N(c2nc(OC[C@]34CCCN3C[C@@H](F)C4)nc3c(F)c(-c4ccc(F)c5sc(N)c(C#N)c45)c(C(F)(F)F)cc23)C[C@H]1C [Compound 26]
D (percent of modification <10%) | D (percent of modification <10%) | 100 to 1000 | D (percent of modification <10%) |  | CCN(c1nc(OC[C@@H]2C[C@@H](OC)CN2C)nc2c(F)c(-c3ccc(F)c4sc(N)c(C#N)c34)c(C(F)(F)F)cc12)[C@@H]1CCN(C(=O)[C@@H](F)Cl)[C@@H]1C [Compound 178]
A (percent of modification ≥70%) | A (percent of modification ≥70%) | < 100 | A (percent of modification ≥70%) |  | C=CC(=O)N1CC[C@@H](N(C)c2nc(O[C@@H](C)[C@@H]3[C@@H](OC)CCN3C)nc3c(F)c(-c4ccc(F)c5sc(N)c(C#N)c45)c(Cl)cc23)[C@H]1C [Compound 195]
A (percent of modification ≥70%) | A (percent of modification ≥70%) | 100 to 1000 | B (50≤percent of modification <70%) |  | C=CC(=O)N1CCC(N(C)c2nc(OC(C)C3CC(=C(F)F)CN3C)nc3c(F)c(-c4ccc(F)c5sc(N)c(C#N)c45)c(Cl)cc23)C1C (stereo not drawn) [Compound 206]
A (percent of modification ≥70%) | A (percent of modification ≥70%) |  | A (percent of modification ≥70%) | < 100 | C[C@@H]1[C@H](N(C)c2nc(OC[C@@]34CCCN3C[C@H](F)C4)nc3c(F)c(-c4ccc(F)c5sc(N)c(C#N)c45)c(C(F)(F)F)cc23)CCN1C(=O)[C@H](F)Cl (atropisomer, axis not shown; (aS)) [Compound 183, 2-amino-4-((S)-4-(((2R,3R)-1-((R)-2-chloro-2-fluoroacetyl)-2-methylpyrrolidin-3-yl)(methyl)amino)-8-fluoro-2-(((2R,7aS)-2-fluorotetrahydro-1H-pyrrolizin-7a(5H)-yl)methoxy)-6-(trifluoromethyl)quinazolin-7-yl)-7-fluorobenzo[b]thiophene-3-carbonitrile]
B (50≤percent of modification <70%) | B (50≤percent of modification <70%) | < 100 | B (50≤percent of modification <70%) |  | C=CC(=O)N1CC[C@@H](N(C)c2nc(OC[C@@H]3C(=C(F)F)CCN3C)nc3c(F)c(-c4ccc(F)c5sc(N)c(C#N)c45)c(Cl)cc23)[C@H]1C [Compound 198]
A (percent of modification ≥70%) | A (percent of modification ≥70%) |  | A (percent of modification ≥70%) |  | C=CC(=O)N1CC[C@@H](N(C)c2nc(O[C@@H](C)[C@@H]3C[C@@H](OC)CN3C)nc3c(F)c(-c4ccc(F)c5sc(N)c(C#N)c45)c(C(F)(F)F)cc23)[C@H]1C [Compound 192]
A (percent of modification ≥70%) |  |  | A (percent of modification ≥70%) |  | C=CC(=O)N1CC[C@@H](N(C)c2nc(OC[C@@]34CCCN3C[C@H](F)C4)nc3c(F)c(-c4ccc(F)c5sc(N)c(C#N)c45)c(Cl)cc23)[C@H]1C (atropisomer, axis not shown) [Compound 51]
A (percent of modification ≥70%) |  | < 100 | B (50≤percent of modification <70%) |  | C=CC(=O)N1CC[C@@H](N(CC)c2nc(OC[C@@]34CCCN3C[C@H](F)C4)nc3c(F)c(-c4ccc(F)c5sc(N)c(C#N)c45)c(Cl)cc23)[C@H]1C [Compound 85]
A (percent of modification ≥70%) | A (percent of modification ≥70%) |  | A (percent of modification ≥70%) |  | C=CC(=O)N1CC[C@@H](N(CC)c2nc(OC[C@@]34CCCN3C[C@H](F)C4)nc3cc(-c4ccc(F)c5sc(N)c(C#N)c45)c(F)cc23)[C@H]1C [Compound 21, 4-(4-(((2R,3R)-1-acryloyl-2-methylpyrrolidin-3-yl)(ethyl)amino)-6-fluoro-2-(((2R,7aS)-2-fluorotetrahydro-1H-pyrrolizin-7a(5H)-yl)methoxy)quinazolin-7-yl)-2-amino-7-fluorobenzo[b]thiophene-3-carbonitrile]
A (percent of modification ≥70%) | A (percent of modification ≥70%) |  | A (percent of modification ≥70%) |  | C=CC(=O)N1CC[C@@H](N(C)c2nc(OC[C@@]34CCCN3C[C@H](F)C4)nc3c(F)c(-c4ccc(F)c5sc(N)c(C#N)c45)ccc23)[C@H]1C [Compound 13]
A (percent of modification ≥70%) | A (percent of modification ≥70%) |  | A (percent of modification ≥70%) |  | C=CC(=O)N1CC[C@@H](N(C)c2nc(OC[C@@]34CCCN3C[C@H](F)C4)nc3c(F)c(-c4ccc(F)c5sc(N)c(C#N)c45)c(C(F)(F)F)cc23)[C@@H]1C (atropisomer, axis not shown) [Compound 70]
